One test relates to HCT-116 cells. The test can be described thus: antiproliferation assay, HCT-116. Format: cell-based. The settings on record: Homo sapiens. Here is the method:
(§1) For the antiproliferation assay, NCI-H460 (large cell lung carcinoma) or M14 (amelanotic melanoma) cells were grown in RPMI-1640 with 10% FBS supplemented with L-glutamine and HEPES. Cells were seeded into 96-well plates at 5×10^2 to 5×10^4 cells/well and allowed to adhere overnight; the medium was then removed. A stock solution of test compound in DMSO was diluted in medium to generate a series of working solutions. Aliquots (100 μl) of the working solutions were then added to the appropriate test wells to expose cells to the final concentrations of compound in a total volume of 100 μl. Seven different concentrations were tested, with 2-5 wells per concentration. Camptothecin was used as a positive control; wells containing vehicle without compound were used as negative controls. Plates were kept for 72 h in a 37° C., 5% CO2 incubator. After incubation, viable cells were detected with the CELLTITER 96 AQueous Non-Radioactive Cell Proliferation Assay (Promega), and IC50 values were determined using GraphPad Prism 5 software.
(§2) Antiproliferation of several of the active compounds was tested against additional cell lines.

A further test has as its system LOX-IMVI cells. Nature of the test: antiproliferation assay, LOX-IMVI. Format: cell-based. The settings on record: Homo sapiens. Here is the method: as §1, §2
The next test relates to NCI/ADR-RES cells. The test can be described thus: antiproliferation assay, NCI/ADR-RES. Format: cell-based. The following applies: Homo sapiens. Here is the method: as §1, §2
Compound 4 was tested for antiproliferation activity against several paclitaxel-resistant human cancer cell lines.

The test system of another test is NCI-H441 cells. Nature of the test: antiproliferation assay, NCI-H441. Format: cell-based. The following applies: Homo sapiens. The procedure: as §1, §2
Test [1] concerns NCI-H460 (large cell lung carcinoma) cells. Nature of the test: antiproliferation assay (72 h, CELLTITER 96), NCI-H460. Format: cell-based, human. The following applies: Homo sapiens, NCI-H460, Table 4; read-out: NCI-H460 IC50. In a few lines:
(§3)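 Human M14 melanoma and NCI-H460 lung carcinoma cells in RPMI-1640/10% FBS, seeded at 5×10^2–5×10^4 cells/well and adhered overnight, then exposed to seven compound concentrations for 72 h at 37 °C. Viable cells read by CellTiter 96 AQueous (MTS); IC50 = concentration giving 50% of maximal growth inhibition.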

Another test concerns NCI-H526 cells. The test can be described thus: antiproliferation assay, NCI-H526. Format: cell-based. The following applies: Homo sapiens. Here is the method:
as §1, §2

Test [2] concerns M14 (amelanotic melanoma) cells. The test can be described thus: antiproliferation assay (72 h, CELLTITER 96), M14. The settings on record: Homo sapiens; Table 4. Format: cell-based, human. In a few lines:
as §3

A further test deals with NCI-H187 cells. Nature of the test: antiproliferation assay, NCI-H187. Format: cell-based. The following applies: Homo sapiens. The procedure: as §1, §2

pIC50: −log10 of the molar value.

As a reminder, the pIC50 is the negative decadic logarithm of the IC50, by convention in mol/L.

`C=CC[C@H]1C[C@]2([C@@H](C)Cc3ccc(OC)c(O)c3)OCOC2=CC1=O` [Compound 32, (6S,7aR)-6-allyl-7a-((S)-1-(3-hydroxy-4-methoxyphenyl)propan-2-yl)-7,7a-dihydrobenzo[d][1,3]dioxol-5(6H)-one]: the pIC50 was 7.89 in the test on HCT-116 cells; 7.92 in the test with LOX-IMVI cells; 7.42 with NCI/ADR-RES cells; 6.85 in the test on NCI-H441 cells; 7.08 in test [1]; 7.10 with NCI-H526 cells. Further, the pIC50 in test [2] was 8.10; with NCI-H187 cells it was 7.34.

The record behind these values is patent US9562031B1, “Phenethyldihydrobenzodioxolones and methods of use” (Sequoia Sciences, Inc., priority 2015, dated 2017).
